From patent US10004732B2 (Novartis AG, priority 2014, dated 2018) come the findings set out here.

Data set [1] concerns the target T1, PI 3-kinase gamma (Homo sapiens, UniProt P48736). In words: TR-FRET Adapta assay, assay E. The following applies: read-out: Assay E PI3Kγ IC50. The data set is classed as biochemical.
Data set [2] concerns IL-8-induced neutrophil shape change in human whole blood. In words: Whole blood neutrophil shape change assay (L). Particulars: IL-8, human whole blood, read-out: Assay L WBSC IC50. The data set is classed as cell-based.
In data set [3] the target is T2, PI 3-kinase delta (Homo sapiens, UniProt O00329). As to the kind of experiment: TR-FRET Adapta assay, assay F.
Target sequence in this assay (O00329 whole entry): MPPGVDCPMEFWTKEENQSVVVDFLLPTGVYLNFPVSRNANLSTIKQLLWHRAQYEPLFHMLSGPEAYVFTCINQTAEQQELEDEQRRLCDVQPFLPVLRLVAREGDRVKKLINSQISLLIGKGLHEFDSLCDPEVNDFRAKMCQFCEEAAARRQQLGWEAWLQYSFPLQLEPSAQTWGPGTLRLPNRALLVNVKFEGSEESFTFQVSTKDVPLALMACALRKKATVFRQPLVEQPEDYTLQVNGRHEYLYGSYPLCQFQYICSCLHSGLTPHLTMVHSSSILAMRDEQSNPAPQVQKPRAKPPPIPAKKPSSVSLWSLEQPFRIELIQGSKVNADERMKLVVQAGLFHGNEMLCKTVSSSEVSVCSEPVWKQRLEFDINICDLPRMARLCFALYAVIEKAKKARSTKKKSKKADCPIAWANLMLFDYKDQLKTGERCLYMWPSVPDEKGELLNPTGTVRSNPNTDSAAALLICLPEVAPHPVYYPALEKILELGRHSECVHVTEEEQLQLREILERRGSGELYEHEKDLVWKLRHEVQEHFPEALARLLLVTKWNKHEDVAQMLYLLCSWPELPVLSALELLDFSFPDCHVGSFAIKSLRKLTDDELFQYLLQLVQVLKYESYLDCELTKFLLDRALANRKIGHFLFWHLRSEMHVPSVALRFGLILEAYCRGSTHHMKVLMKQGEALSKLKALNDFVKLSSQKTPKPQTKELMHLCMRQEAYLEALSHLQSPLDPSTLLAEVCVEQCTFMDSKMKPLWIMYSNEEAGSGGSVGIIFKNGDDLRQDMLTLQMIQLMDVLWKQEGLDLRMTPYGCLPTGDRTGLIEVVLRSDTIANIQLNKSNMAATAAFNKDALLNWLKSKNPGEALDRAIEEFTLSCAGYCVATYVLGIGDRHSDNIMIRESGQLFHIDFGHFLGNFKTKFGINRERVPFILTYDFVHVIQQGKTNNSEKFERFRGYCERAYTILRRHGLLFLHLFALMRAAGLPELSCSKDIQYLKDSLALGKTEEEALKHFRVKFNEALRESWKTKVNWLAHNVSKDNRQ
Target sequence in this assay (P27986 461-568 partner): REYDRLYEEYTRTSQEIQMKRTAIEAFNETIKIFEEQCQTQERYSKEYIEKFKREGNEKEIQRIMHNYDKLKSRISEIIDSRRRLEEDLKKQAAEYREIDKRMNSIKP
Another data set has as its target PI 4-kinase beta (Homo sapiens, UniProt Q9UBF8). In words: Kinase Glo Luminescent Kinase Assay (Kglo), assay D. The data set is classed as biochemical. Particulars: read-out: Assay D PI4Kβ IC50.
Another data set concerns the target Vps34 (Homo sapiens, UniProt Q8NEB9). As to the kind of experiment: Kinase Glo Luminescent Kinase Assay (Kglo), assay C. In kind it is biochemical. Particulars: read-out: Assay C VPS34 IC50.
Another data set has as its target mTOR (Homo sapiens, UniProt P42345). As to the kind of experiment: Lanthascreen kinase binding assay, assay G. Particulars: read-out: Assay G mTOR IC50.
Data set [4] deals with T1, PI 3-kinase gamma. In words: Cellular U937 AKT assay K1 (MSD). Particulars: U937 cells, K1 format; read-out: Assay K1 PI3Kγ IC50. The data set is classed as cell-based.
For data set [5], the target named is T3, PI 3-kinase beta (Homo sapiens, UniProt P42338). In words: Kinase Glo Luminescent Kinase Assay (Kglo), assay B. In kind it is biochemical. Particulars: read-out: Assay B PI3Kβ IC50.
Data set [6] addresses T4, PI 3-kinase alpha (Homo sapiens, UniProt P42336). In words: Kinase Glo Luminescent Kinase Assay (Kglo), assay A. Particulars: read-out: Assay A PI3Kα IC50. In kind it is biochemical.
Target sequence in this assay (P42336 whole entry): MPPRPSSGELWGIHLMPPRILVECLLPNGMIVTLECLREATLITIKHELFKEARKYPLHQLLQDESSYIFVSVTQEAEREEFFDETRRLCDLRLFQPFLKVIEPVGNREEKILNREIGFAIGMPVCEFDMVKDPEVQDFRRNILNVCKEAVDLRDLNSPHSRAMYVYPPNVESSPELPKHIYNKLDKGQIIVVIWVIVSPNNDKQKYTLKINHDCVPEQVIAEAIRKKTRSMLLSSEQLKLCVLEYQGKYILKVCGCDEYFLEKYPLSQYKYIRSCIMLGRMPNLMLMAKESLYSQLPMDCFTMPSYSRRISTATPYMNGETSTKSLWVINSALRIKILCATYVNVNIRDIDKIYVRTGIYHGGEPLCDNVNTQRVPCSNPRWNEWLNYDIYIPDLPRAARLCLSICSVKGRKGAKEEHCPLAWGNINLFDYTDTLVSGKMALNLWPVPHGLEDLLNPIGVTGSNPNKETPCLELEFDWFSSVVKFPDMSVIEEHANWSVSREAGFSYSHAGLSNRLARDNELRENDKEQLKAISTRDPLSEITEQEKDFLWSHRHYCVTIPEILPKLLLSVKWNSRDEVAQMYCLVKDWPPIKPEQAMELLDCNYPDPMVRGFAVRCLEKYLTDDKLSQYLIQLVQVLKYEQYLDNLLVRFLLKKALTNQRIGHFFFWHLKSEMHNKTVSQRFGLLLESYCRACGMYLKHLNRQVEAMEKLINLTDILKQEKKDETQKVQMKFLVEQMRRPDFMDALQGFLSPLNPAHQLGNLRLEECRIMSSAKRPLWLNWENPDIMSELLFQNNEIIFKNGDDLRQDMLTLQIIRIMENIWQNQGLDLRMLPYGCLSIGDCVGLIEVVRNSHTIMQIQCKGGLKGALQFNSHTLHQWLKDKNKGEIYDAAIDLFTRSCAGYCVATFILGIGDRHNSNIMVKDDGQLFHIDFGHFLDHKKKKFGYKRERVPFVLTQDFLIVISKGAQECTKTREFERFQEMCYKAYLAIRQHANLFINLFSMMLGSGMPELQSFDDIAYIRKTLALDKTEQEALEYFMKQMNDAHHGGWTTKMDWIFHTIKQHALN
For data set [7], the target named is T4, PI 3-kinase alpha. As to the kind of experiment: Cellular assay H1, p-Akt (S473) in Rat-1 cells, Surefire format. The following applies: non-asterisked data: version H1 (Surefire format), Rat-1 cells; read-out: Assay H PI3Kα IC50. The data set is classed as cell-based.
Target sequence in this assay (P42336 whole entry): as above
Target sequence in this assay (Q63787 whole entry partner): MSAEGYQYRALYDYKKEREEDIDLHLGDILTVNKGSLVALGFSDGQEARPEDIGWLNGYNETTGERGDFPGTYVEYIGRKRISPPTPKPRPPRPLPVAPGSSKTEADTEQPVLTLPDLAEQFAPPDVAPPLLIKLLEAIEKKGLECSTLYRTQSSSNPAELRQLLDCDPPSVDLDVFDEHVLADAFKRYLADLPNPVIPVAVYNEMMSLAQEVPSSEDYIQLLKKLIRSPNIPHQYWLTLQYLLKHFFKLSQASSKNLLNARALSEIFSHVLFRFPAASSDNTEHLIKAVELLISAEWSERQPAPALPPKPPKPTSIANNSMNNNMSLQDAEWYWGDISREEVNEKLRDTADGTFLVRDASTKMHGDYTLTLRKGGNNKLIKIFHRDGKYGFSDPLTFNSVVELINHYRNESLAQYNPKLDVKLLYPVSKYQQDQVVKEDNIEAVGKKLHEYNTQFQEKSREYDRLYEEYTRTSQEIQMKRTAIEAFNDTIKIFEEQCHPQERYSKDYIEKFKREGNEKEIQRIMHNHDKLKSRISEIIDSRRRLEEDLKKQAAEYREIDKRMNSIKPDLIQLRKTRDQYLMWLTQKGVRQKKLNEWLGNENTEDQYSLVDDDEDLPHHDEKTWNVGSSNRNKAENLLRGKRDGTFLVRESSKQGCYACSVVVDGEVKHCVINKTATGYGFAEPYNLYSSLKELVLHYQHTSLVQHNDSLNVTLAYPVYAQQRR
Data set [8] addresses T2, PI 3-kinase delta. As to the kind of experiment: Cellular assay J1, p-Akt (S473) in Rat-1 cells, Surefire format. In kind it is cell-based. Particulars: non-asterisked data: version J1 (Surefire format), Rat-1 cells; read-out: Assay J PI3Kδ IC50.
Target sequence in this assay (O00329 whole entry): as the sequence (O00329 whole entry) above
Target sequence in this assay (Q63787 whole entry partner): as the sequence (Q63787 whole entry partner) above
Source text: (§1) Cellular Assays for PI 3-Kinase Alpha (H1), Beta (I1) and Delta (J1): Surefire Format
(§2) AlphaScreen (Amplified Luminescent Proximity Homogeneous Assay, ALPHA, Perkin Elmer) is a non-radioactive bead-based proximity assay technology to study biomolecular interactions in a homogenous microtiter plate format. The brand name SureFire denotes AlphaScreen assays that are adapted to quantify the phosphorylation of endogenous cellular proteins in cell lysates, by using matched antibody pairs, which consist of an anti-phospho-kinase and an anti-kinase antibody. The assay allows characterization of kinase signaling in cells as well as measurement of kinase inhibitor effects.
(§3) Using Rat-1 cells stably expressing myr-HA-tagged versions of the human PI3Kdelta, PI3Kalpha, or PI3Kbeta p110 catalytic subunit isoforms, the assay was developed as a two-plate protocol in a 384-well format.
(§4) For compound testing, the cells were seeded at a density of 4000 (Rat-1_PI3Kdelta), 7500 (Rat-1_PI3Kalpha), or 6200 (Rat-1_PI3Kbeta) cells in 20 μl complete growth medium into cell culture treated 384-well plates and were grown at 37° C./5% CO2/90% humidity for 24 h. Shortly before compound transfer, the complete medium was removed, 30 μl assay buffer (DMEM high glucose, 1×MEM NEAA, 10 mM HEPES, 2 mM L-glutamine, 0.1% (w/v) BSA) was added and 10 μl of the compound predilutions were transferred to the cells.
Data set [9] has as its target T3, PI 3-kinase beta. In words: Cellular assay I1, p-Akt (S473) in Rat-1 cells, Surefire format. The data set is classed as cell-based. Particulars: non-asterisked data: version I1 (Surefire format), Rat-1 cells; read-out: Assay I PI3Kβ IC50.
Source text: as §1, §2, §3, §4
Data set [10] is described as follows: Microsomal clearance assay (M). Particulars: intrinsic clearance in rat liver microsomes.
Procedure: The experiments were performed in 96-well glass plates at 37° C. on an automated Tecan EVO platform. Test compounds at a concentration of 10 mM in pure DMSO were diluted 1:1000 in water to 10 μM. […] Reactions were initiated by the addition of 150 μL of a cofactor solution containing 2 mM NADPH.

Like-named read-outs stand apart in the source and are kept apart here.

Vps34, sequence (Q8NEB9 whole entry, species assumed): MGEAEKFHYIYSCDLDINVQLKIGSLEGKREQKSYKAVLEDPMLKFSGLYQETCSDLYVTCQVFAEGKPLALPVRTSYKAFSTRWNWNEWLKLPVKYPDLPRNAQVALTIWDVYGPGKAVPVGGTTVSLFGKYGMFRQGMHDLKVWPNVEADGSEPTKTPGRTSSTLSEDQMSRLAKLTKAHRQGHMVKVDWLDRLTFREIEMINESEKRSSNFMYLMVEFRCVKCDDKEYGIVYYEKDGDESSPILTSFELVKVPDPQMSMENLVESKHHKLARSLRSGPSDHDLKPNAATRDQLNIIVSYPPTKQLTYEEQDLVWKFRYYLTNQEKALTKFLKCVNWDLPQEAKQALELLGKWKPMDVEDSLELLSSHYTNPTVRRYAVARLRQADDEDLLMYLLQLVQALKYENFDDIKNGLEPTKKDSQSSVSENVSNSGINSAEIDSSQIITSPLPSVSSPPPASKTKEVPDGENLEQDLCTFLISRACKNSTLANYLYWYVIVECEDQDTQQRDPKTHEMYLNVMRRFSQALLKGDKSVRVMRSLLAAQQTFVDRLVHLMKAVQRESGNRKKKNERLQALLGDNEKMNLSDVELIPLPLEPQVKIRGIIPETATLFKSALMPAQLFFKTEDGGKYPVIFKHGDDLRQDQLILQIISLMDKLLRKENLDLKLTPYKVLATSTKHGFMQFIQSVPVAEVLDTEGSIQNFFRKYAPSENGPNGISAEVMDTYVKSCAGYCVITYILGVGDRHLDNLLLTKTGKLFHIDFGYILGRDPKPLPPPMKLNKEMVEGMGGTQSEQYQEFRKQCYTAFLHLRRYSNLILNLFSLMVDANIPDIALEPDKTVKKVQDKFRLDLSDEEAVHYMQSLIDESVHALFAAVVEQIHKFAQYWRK
T1 sequence (P48736 whole entry): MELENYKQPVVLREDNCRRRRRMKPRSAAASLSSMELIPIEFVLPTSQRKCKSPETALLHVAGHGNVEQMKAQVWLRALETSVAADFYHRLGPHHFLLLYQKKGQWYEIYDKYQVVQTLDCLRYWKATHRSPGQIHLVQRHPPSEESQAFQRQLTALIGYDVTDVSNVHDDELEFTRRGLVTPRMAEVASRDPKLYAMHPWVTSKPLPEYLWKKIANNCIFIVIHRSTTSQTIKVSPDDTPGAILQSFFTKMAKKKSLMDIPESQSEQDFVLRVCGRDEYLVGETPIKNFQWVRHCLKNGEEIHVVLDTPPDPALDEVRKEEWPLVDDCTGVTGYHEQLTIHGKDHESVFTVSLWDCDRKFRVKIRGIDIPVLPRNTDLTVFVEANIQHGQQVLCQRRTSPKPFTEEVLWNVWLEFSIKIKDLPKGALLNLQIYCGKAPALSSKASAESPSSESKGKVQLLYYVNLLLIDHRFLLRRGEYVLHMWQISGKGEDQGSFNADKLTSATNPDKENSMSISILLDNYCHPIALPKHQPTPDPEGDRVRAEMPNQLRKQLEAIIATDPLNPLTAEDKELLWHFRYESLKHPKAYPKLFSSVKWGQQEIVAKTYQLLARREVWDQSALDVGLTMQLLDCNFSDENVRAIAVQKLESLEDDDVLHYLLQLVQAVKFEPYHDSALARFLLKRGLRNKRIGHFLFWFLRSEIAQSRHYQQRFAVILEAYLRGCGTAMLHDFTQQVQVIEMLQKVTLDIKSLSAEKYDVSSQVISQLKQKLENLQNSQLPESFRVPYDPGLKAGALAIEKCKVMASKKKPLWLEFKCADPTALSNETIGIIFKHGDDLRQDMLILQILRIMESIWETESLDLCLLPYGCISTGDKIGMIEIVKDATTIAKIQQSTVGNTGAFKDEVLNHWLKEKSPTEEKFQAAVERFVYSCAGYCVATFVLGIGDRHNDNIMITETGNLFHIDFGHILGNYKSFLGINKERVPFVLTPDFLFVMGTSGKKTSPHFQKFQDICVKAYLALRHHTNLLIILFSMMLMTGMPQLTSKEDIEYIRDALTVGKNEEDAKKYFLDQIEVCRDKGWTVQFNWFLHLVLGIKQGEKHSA
Procedure for mTOR: Lanthascreen™ Kinase Binding Assay for mTOR (G)
Binding of an inhibitor to the kinase competes for binding with the tracer, resulting in a loss of FRET.
50 nL of compound dilutions were dispensed onto white 384-well small volume polystyrene plate.

In the case of `Cc1ccc(S(=O)(=O)NCCC2(O)CCCC2)cc1-c1cnc(N)c(-n2cncn2)n1` [Example 127.36], the concentration for half-maximal inhibition (IC50) at PI 3-kinase gamma [1] was 24 nM; in [2] (Homo sapiens, Neutrophil), 3850 nM; on PI 3-kinase delta [3] (read-out: Assay F PI3Kδ IC50), 0.79 µM; at PI 4-kinase beta, 5300 nM; at Vps34 it was over 10000 nM; on mTOR, 7600 nM. The half-maximal inhibitory concentration (IC50) at PI 3-kinase gamma [4] came out at 126 nM; on PI 3-kinase beta [5], 1900 nM; on PI 3-kinase alpha [6] it was 190 nM.
For `CC(C)(O)CCNS(=O)(=O)c1ccc(Cl)c(-c2cnc(N)c(-n3cncn3)n2)c1` [Example 38, 3-(5-Amino-6-(1H-1,2,4-triazol-1-yl)pyrazin-2-yl)-4-chloro-N-(3-hydroxy-3-methylbutyl)benzenesulfonamide], the 50% inhibitory concentration (IC50) on PI 3-kinase gamma [1] was 25 nM; in [2] (Homo sapiens, Neutrophil), 3380 nM; on PI 3-kinase delta [3] (read-out: Assay F PI3Kδ IC50), 0.14 µM; at PI 4-kinase beta it was 4200 nM; at Vps34, over 9100 nM; on PI 3-kinase alpha [7], 3020 nM. Further, the IC50 amounted to 8400 nM on mTOR; 2360 nM on PI 3-kinase delta [8]; 3500 nM at PI 3-kinase beta [5]; 2110 nM on PI 3-kinase beta [9]; 920 nM at PI 3-kinase alpha [6]. The “Assay M RLM CI(int)” value in data set [10] amounted to 89 µL/min/mg.
Take `COCCCNS(=O)(=O)c1ccc(C)c(-c2cnc(N)c(-c3ccnc(C)c3)n2)c1` [Example 129.11, 3-(5-amino-6-(2-methylpyridin-4-yl)pyrazin-2-yl)-N-(3-methoxypropyl)-4-methylbenzenesulfonamide]: the half-maximal inhibitory concentration (IC50) is 173 nM at PI 3-kinase gamma [1]; 5680 nM in data set [2] (Homo sapiens, Neutrophil); 0.79 µM at PI 3-kinase delta [3] (read-out: Assay F PI3Kδ IC50); over 9100 nM at PI 4-kinase beta; over 9100 nM at Vps34; 2730 nM on PI 3-kinase alpha [7]. Also, the half-inhibitory concentration (IC50) on mTOR is over 9100 nM; at PI 3-kinase delta [8], 3330 nM; on PI 3-kinase beta [5] it was over 9100 nM; on PI 3-kinase beta [9] it was 8380 nM; on PI 3-kinase alpha [6], 640 nM. Moreover, the “Assay M RLM CI(int)” value in data set [10] was found to be 105 µL/min/mg.
With `Cc1ccc(S(=O)(=O)NCC(C)(F)F)cc1-c1cnc(N)c(-n2cncn2)n1` [Example 127.43], the IC50 is 95 nM at PI 3-kinase gamma [1]; 1640 nM in [2] (Homo sapiens, Neutrophil); 3.4 µM on PI 3-kinase delta [3] (read-out: Assay F PI3Kδ IC50); 2900 nM on PI 4-kinase beta; over 10000 nM on Vps34; 8800 nM on mTOR. Besides, the values for the IC50 on PI 3-kinase gamma [4], at PI 3-kinase beta [5] and on PI 3-kinase alpha [6] were 275 nM, 1700 nM and 560 nM, respectively.
As for `Cc1ccc(S(=O)(=O)NC[C@H]2CCOC2)cc1-c1cnc(N)c(-n2cncn2)n1` [Example 127.27], the concentration for half-maximal inhibition (IC50) on PI 3-kinase gamma [1] is 26 nM; in [2] (Homo sapiens, Neutrophil) it was 1090 nM; at PI 3-kinase delta [3] (read-out: Assay F PI3Kδ IC50) it was 0.79 µM; on PI 4-kinase beta, 8700 nM; on Vps34 it was over 10000 nM; at mTOR, 9600 nM. Further, the half-maximal inhibitory concentration (IC50) at PI 3-kinase gamma [4] was 242 nM; on PI 3-kinase beta [5], 1800 nM; on PI 3-kinase alpha [6], 200 nM.
As for `Cc1ccc(S(=O)(=O)NC2CC3(CC(O)C3)C2)cc1-c1cnc(N)c(-n2cncn2)n1` (single isomer, unassigned) [Example 70a, (S)-3-(5-Amino-6-(1H-1,2,4-triazol-1-yl)pyrazin-2-yl)-N-(6-hydroxyspiro[3.3]heptan-2-yl)-4-methylbenzenesulfonamide or (R)-3-(5-Amino-6-(1H-1,2,4-triazol-1-yl)pyrazin-2-yl)-N-(6-hydroxyspiro[3.3]heptan-2-yl)-4-methylbenzenesulfonamide], the half-inhibitory concentration (IC50) on PI 3-kinase gamma [1] was 25 nM; in data set [2], 185 nM; against PI 3-kinase delta [3] (Assay F PI3Kδ IC50 (μM)) it was 0.29 µM; on PI 4-kinase beta, 4600 nM; on Vps34, over 10000 nM; at PI 3-kinase alpha [7], 1920 nM. In addition, the IC50 on mTOR turned out to be 2000 nM; at PI 3-kinase delta [8], 1410 nM; on PI 3-kinase beta [5], 750 nM; at PI 3-kinase beta [9], 2640 nM; on PI 3-kinase alpha [6] it was 110 nM. In addition, the “Assay M RLM CI(int)” value in [10] was determined as 58 µL/min/mg.
`Cc1ccc(S(=O)(=O)NCC(C)(C)O)cc1-c1cnc(N)c(-c2cnn(CC(F)(F)F)n2)n1` [Example 84, 3-(5-Amino-6-(2-(2,2,2-trifluoroethyl)-2H-1,2,3-triazol-4-yl)pyrazin-2-yl)-N-(2-hydroxy-2-methylpropyl)-4-methyl benzenesulfonamide]: the IC50 is 42 nM at PI 3-kinase gamma [1]; 1010 nM in data set [2] (Homo sapiens, Neutrophil); 0.21 µM on PI 3-kinase delta [3] (read-out: Assay F PI3Kδ IC50); 7050 nM on PI 4-kinase beta; over 10000 nM on Vps34; 450 nM on PI 3-kinase alpha [7]. In addition, the IC50 is over 10000 nM on mTOR; 440 nM on PI 3-kinase delta [8]; 2300 nM at PI 3-kinase beta [5]; over 3000 nM at PI 3-kinase beta [9]; 120 nM at PI 3-kinase alpha [6]. For the same molecule, the “Assay M RLM CI(int)” value in [10] stood at 64 µL/min/mg.
In the case of `CC(C)(O)CNS(=O)(=O)c1cccc(-c2cnc(N)c(-n3cncn3)n2)c1` [Example 123, 3-(5-Amino-6-(1H-1,2,4-triazol-1-yl)pyrazin-2-yl)-N-(2-hydroxy-2-methylpropyl)benzenesulfonamide], the IC50 on PI 3-kinase gamma [1] is 2100 nM; in [2] (Homo sapiens, Neutrophil), 85100 nM; at PI 3-kinase delta [3] (read-out: Assay F PI3Kδ IC50), 4.7 µM; on PI 4-kinase beta, 2500 nM; at Vps34, over 10000 nM; at PI 3-kinase alpha [7], over 10000 nM. For the same molecule, the IC50 at mTOR is 9000 nM; at PI 3-kinase delta [8], 3630 nM; at PI 3-kinase beta [5], 5500 nM; on PI 3-kinase beta [9], over 10000 nM; on PI 3-kinase alpha [6], 2900 nM. The “Assay M RLM CI(int)” value in data set [10] came out at 62 µL/min/mg.
Turning to `CCn1ncc(-c2nc(-c3cc(S(=O)(=O)NCC(C)(C)O)ccc3C)cnc2N)n1` [Example 82, 3-(5-Amino-6-(2-ethyl-2H-1,2,3-triazol-4-yl)pyrazin-2-yl)-N-(2-hydroxy-2-methylpropyl)-4-methylbenzenesulfonamide], the half-maximal inhibitory concentration (IC50) on PI 3-kinase gamma [1] was 41 nM; in data set [2] (Homo sapiens, Neutrophil) it was 825 nM; on PI 3-kinase delta [3] (read-out: Assay F PI3Kδ IC50) it was 0.54 µM; on PI 4-kinase beta it was over 10000 nM; at Vps34, over 10000 nM; at PI 3-kinase alpha [7], 860 nM. For the same molecule, the concentration for half-maximal inhibition (IC50) at mTOR is over 10000 nM; on PI 3-kinase delta [8], 610 nM; at PI 3-kinase beta [5], 5500 nM; on PI 3-kinase beta [9], 2980 nM; at PI 3-kinase alpha [6], 180 nM. For the same molecule, the “Assay M RLM CI(int)” value in data set [10] stood at 25 µL/min/mg.
In the case of `CC(C)(O)CNS(=O)(=O)c1ccc(Cl)c(-c2cnc(N)c(-n3cncn3)n2)c1` [Example 37, 3-(5-Amino-6-(1H-1,2,4-triazol-1-yl)pyrazin-2-yl)-4-chloro-N-(2-hydroxy-2-methylpropyl)benzenesulfonamide], the IC50 on PI 3-kinase gamma [1] is 83 nM; in data set [2] (Homo sapiens, Neutrophil), 1550 nM; at PI 3-kinase delta [3] (read-out: Assay F PI3Kδ IC50), 0.73 µM; on PI 4-kinase beta it was 3500 nM; on Vps34 it was over 9100 nM; on PI 3-kinase alpha [7], 7910 nM. Also, the IC50 at mTOR turned out to be 5900 nM; on PI 3-kinase delta [8], 5920 nM; on PI 3-kinase beta [5], 3500 nM; on PI 3-kinase beta [9], 1890 nM; on PI 3-kinase alpha [6], 1000 nM. Also, in data set [10], the “Assay M RLM CI(int)” value amounted to 33 µL/min/mg.
Turning to `Cc1ccc(S(=O)(=O)N[C@H]2C[C@@H](O)C2)cc1-c1cnc(N)c(-n2cncn2)n1` [Example 71b, 3-(5-amino-6-(1H-1,2,4-triazol-1-yl)pyrazin-2-yl)-N-((1s,3s)-3-hydroxycyclobutyl)-4-methylbenzenesulfonamide], the IC50 is 21 nM at PI 3-kinase gamma [1]; 1620 nM in data set [2]; 1.3 µM at PI 3-kinase delta [3] (read-out: Assay F PI3Kδ IC50); 4600 nM on PI 4-kinase beta; over 10000 nM at Vps34; 6910 nM at PI 3-kinase alpha [7]. Further, the IC50 on mTOR is over 10000 nM; at PI 3-kinase delta [8] it was 5860 nM; on PI 3-kinase beta [5], 1900 nM; at PI 3-kinase beta [9] it was over 10000 nM; on PI 3-kinase alpha [6], 760 nM. In addition, in [10], the “Assay M RLM CI(int)” value worked out at 26 µL/min/mg.
In the case of `Cc1ccc(S(=O)(=O)NCC2(C(N)=O)CC2)cc1-c1cnc(N)c(-n2cncn2)n1` [Example 127.56], the IC50 on PI 3-kinase gamma [1] is 73 nM; in data set [2] (Homo sapiens, Neutrophil) it was 715 nM; on PI 3-kinase delta [3] (read-out: Assay F PI3Kδ IC50), 1.4 µM; at PI 4-kinase beta, over 10000 nM; at Vps34, over 10000 nM; at PI 3-kinase alpha [7] it was 9610 nM. Further, the IC50 at mTOR was 7400 nM; at PI 3-kinase delta [8] it was 6000 nM; at PI 3-kinase beta [5], 1200 nM; on PI 3-kinase beta [9] it was 3560 nM; at PI 3-kinase alpha [6] it was 420 nM. For the same molecule, the “Assay M RLM CI(int)” value in [10] turned out to be 25 µL/min/mg.
